Data on 1 compound can be found in patent publication EP3498273A1, “PHARMACEUTICAL COMPOSITION FOR MODULATING THE RESPONSE OF A GABA-A RECEPTOR” (Universität Wien, priority 2017, dated 2019).

The EC50 is the concentration giving half of the maximal effect. The term Emax denotes the maximal effect, on the per cent scale that the assay sets.

For test [1], the target named is GABAA receptors composed of α1β1γ2S subunits (Homo sapiens, UniProt P14867+P18505). The test is described as follows: Two-microelectrode voltage clamp: IGABA enhancement in Xenopus laevis oocytes. Conditions: replacing β2/3 by β1; Emax and EC50 not determined.
Test [2] concerns native GABAA receptors, primary cultures of dissociated hippocampal neurons. The test can be described thus: Whole-cell patch clamp on cultured hippocampal neurons (miniature IPSCs and tonic currents). The class given is cell-based. The note with it: 10 µM compound, holding potential -70 mV.
Another test relates to male C57BL/6N mice. The test can be described thus: Seizure threshold upon pentylenetetrazole (PTZ) tail-vein infusion. The format is in vivo. Conditions: intraperitoneal, 30 min before the test, n = 4, control 39.5 ± 0.8. The protocol: Only male C57BL/6N mice (age 3-6 months) were used for determination of the seizure threshold. Intraperitoneal injection of control or compound-containing solutions was done 30 min before the test. Indicated doses in the results represent milligrams per kilogram body weight. Seizure threshold was determined by pentylenetetrazole (PTZ) tail-vein infusion on freely moving animals at a rate of 100 µl/min (10 mg/ml PTZ in saline, pH = 7.4). […] Animals were immediately killed by cervical displacement after onset of seizures. The seizure threshold dose was calculated from the infused dose in relation to body weight (mg/kg).

In test [3] the target is GABAA receptors composed of α1β2γ2S subunits (Homo sapiens, UniProt P14867+P47870). The test is described as follows: Two-microelectrode voltage clamp: IGABA enhancement in Xenopus laevis oocytes.
GABAA receptors composed of α1β2γ2S subunits, sequence (P14867 28-456): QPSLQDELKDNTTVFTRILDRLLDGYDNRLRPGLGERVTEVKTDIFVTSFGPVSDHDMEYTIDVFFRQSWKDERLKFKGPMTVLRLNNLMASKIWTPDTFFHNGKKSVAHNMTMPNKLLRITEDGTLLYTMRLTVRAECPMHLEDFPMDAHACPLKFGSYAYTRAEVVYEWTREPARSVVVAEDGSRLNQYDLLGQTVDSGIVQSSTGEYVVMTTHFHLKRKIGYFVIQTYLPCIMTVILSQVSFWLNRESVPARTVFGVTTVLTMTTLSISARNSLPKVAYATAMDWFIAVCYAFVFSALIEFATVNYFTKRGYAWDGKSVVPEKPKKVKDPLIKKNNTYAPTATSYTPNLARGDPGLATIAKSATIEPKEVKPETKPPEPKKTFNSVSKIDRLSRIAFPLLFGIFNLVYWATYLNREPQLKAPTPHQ
GABAA receptors composed of α1β2γ2S subunits, sequence (P47870 26-474 isoform P47870-1 limits assumed): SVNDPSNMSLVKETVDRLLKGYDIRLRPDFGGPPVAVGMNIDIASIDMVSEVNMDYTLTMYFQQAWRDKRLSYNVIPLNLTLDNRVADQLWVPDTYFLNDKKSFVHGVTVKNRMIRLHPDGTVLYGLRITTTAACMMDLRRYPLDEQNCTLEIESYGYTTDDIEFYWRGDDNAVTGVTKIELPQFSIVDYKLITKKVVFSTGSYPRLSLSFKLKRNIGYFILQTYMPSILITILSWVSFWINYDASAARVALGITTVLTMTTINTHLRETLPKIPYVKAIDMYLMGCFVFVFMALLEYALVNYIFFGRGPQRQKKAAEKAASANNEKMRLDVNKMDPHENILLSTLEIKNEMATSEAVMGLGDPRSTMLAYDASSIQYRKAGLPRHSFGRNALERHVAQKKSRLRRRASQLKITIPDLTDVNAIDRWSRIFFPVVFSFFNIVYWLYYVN
GABAA receptors composed of α1β2γ2S subunits, sequence (P18507 40-467 isoform P18507-1 partner limits assumed): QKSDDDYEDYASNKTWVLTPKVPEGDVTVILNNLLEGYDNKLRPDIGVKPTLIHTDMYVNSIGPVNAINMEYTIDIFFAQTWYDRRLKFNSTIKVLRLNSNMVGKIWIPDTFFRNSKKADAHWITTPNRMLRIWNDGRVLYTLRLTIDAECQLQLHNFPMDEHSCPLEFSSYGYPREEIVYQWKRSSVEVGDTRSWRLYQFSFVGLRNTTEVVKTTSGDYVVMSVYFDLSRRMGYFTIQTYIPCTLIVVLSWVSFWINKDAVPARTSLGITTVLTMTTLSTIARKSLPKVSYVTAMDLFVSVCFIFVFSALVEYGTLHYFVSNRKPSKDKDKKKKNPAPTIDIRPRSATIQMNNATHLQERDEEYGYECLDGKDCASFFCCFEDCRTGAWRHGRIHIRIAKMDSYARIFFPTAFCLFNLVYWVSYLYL

GABAA receptors composed of α1β1γ2S subunits, sequence (P14867 28-456): as the sequence (P14867 28-456) above
GABAA receptors composed of α1β1γ2S subunits, sequence (P18505 26-474): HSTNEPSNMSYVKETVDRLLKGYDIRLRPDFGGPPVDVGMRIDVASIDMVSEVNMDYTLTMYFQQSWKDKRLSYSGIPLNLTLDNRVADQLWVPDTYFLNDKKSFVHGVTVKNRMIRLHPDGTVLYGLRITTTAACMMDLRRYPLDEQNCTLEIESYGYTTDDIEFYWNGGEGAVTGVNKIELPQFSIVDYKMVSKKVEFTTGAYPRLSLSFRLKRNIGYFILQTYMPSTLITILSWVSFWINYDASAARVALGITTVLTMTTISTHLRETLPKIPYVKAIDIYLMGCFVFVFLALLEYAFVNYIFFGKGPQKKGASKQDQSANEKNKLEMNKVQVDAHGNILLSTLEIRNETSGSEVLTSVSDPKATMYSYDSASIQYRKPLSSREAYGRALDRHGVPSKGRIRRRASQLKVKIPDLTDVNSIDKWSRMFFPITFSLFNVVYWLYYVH
GABAA receptors composed of α1β1γ2S subunits, sequence (P18507 40-467 isoform P18507-1 partner limits assumed): as the sequence (P18507 40-467 isoform P18507-1 partner limits assumed) above

Consider `C/C(=C/C#N)c1ccc(Cl)cc1Cl` [Compound Z-2, (2Z)-3-(2,4-dichlorophenyl)but-2-enenitrile], for which the “sensitivity of the resulting GABAA channels” value in test [1] is “drastically reduced the sensitivity”. In test [2], the “amplitude of mIPSCs” value is reported as “no effect”, the “frequency of mIPSCs” value was “no effect” and the holding currents entry is “shifted towards more negative values”. Besides, the “decay of mIPSCS (normalized)” value in test [2] (compared to control, n=5) is on record as 213.8 ± 41.0%. In the test on male C57BL/6N mice (0.1 mg/kg body weight), this compound yielded a seizure threshold of 48.5 ± 2.3 mg/kg PTZ. In the test on male C57BL/6N mice (0.3 mg/kg body weight), this compound showed a seizure threshold of 52.3±1.6 mg/kg PTZ. Besides, the EC50 in test [3] was determined as 9.9 ± 2.5 µM. Further, the Emax in test [3] (second β2/3 channel of Fig. 1B, printed as α1β3γ2S, n = 3, no unit at this value) is 1804.9 ± 153.0%.
